In US20060003348A1, “Omi PDZ modulators” (GENENTECH. INC., priority 2004, published 2006):
Read-outs that look alike come from different tables or passages of the source. Values belong to the compound of their own block, whether it stands above or below them. Where a SMILES comes first, the peptide text is derived from it. Where no end group is shown, it is not given here.

Target: T1, Omi PDZ (GST-Omi PDZ fusion protein) (Homo sapiens, UniProt O43464)
T1 construct: DNA fragment encoding hOmi PDZ domain was cloned into BamHI/XhoI sites of pGEX6P-3 plasmid, creating a GST-hOmiPDZ fusion protein; made in house; host or cells: E. coli BL21(DE3), plasmid pGEX6P-3
T1 sequence (O43464 359-458): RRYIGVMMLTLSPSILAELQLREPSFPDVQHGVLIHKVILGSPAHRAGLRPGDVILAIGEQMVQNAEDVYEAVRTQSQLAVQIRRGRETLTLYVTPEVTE
Test: Competition ELISA affinity assay: peptide blocks GST-Omi PDZ binding to immobilized biotinylated peptide
Settings: for fold lower affinity (IC50 increase) relative to SWTMFWV (hOmi_c1): compared with peptide SWTMFWV (hOmi_c1); for IC50 / IC50 (μM): competition ELISA
Protocol: Affinity Assays—The binding affinities of peptides for Omi PDZ were determined as IC50 values using a previously described competition ELISA (18). […] Assay plates were prepared by immobilizing an amino-terminally biotinylated peptide (biotin-GWTMFWV) on maxisorp plates coated with NeuTravidin and blocked with BSA. A fixed concentration of GST-Omi PDZ fusion protein (20 nM) in PBS, 0.5% BSA, 0.1% Tween 20 (PBT buffer) was preincubated for 1 h with serial dilutions of peptide and then transferred to the assay plates. After 1 h incubation, the plates were washed with PBS, 0.05% Tween 20, incubated for 30 min with HRP/anti-GST antibody (1:10,000) in PBT buffer, washed again, and detected with 3,3′,5,5′-Tetramethyl-benzidine/H2O2 (TMB) peroxidase substrate.
The binding affinity of this ligand to Omi PDZ was measured with ELISA competition assay. […] PDZ-opt is an optimized peptide ligand of Omi PDZ derived from a chemically synthesized peptide library (11) with totally different sequence motif from that of the ligands derived from phage libraries. […] Peptides from libC and peptides Mxi2 and PDZ-opt were synthesized with acetylated N termini and free C termini, unless indicated otherwise. Peptides from libN were synthesized with free N termini and amidation at C termini.

[1] = 20 nM GST-Omi PDZ, immobilized biotinylated high affinity peptide, mean, read-out: IC50
[2] = IC50 (μM), 20 nM GST-Omi PDZ, immobilized biotinylated high affinity peptide, mean
[3] = 20 nM GST-Omi PDZ, immobilized biotinylated high affinity peptide, mean

fold lower affinity relative to SHWWGGWLG (hOmi_n1) (truncation series of SHWWGGWLG, C terminus amidated): 3 fold
Compound: NC(=O)[C@H](Cc1c[nH]c2ccccc12)NC(=O)[C@H](Cc1c[nH]c2ccccc12)NC(=O)[C@H](Cc1c[nH]cn1)NC(=O)[C@@H](N)CO [hOmi_n1_t5, S H W W] (H-SHWW-NH2)

IC50 (μM) [3]: NDI
Compound: S H W W G (SHWWG) [hOmi_n1_t4]

IC50 (μM) [3]: NDI
Compound: WGGWLG [hOmi_n1_t8, W G G W L G]

IC50 (μM) [3]: NDI
Compound: WWGGWLG [hOmi_n1_t7, W W G G W L G]

IC50 [1]: 108 ± 32.2 µM
effect on binding to Omi PDZ, in words (SHWWGGWLG series) (truncations of SHWWGGWLG (libN), C terminus amidated): comparable affinity as tetrapeptide SHWW
Compound: NC(=O)[C@H](Cc1c[nH]c2ccccc12)NC(=O)[C@H](Cc1c[nH]c2ccccc12)NC(=O)[C@@H](N)Cc1c[nH]cn1 [hOmi_n1_t9, H W W] (H-His-Trp-Trp-NH2)

The remaining lines, values behind:

Compound: CC(=O)N[C@@H](Cc1ccccc1)C(=O)N[C@@H](Cc1c[nH]c2ccccc12)C(=O)N[C@H](C(=O)O)C(C)C [hOmi_c1_t4, F W V] (Ac-Phe-Trp-Val-OH)
fold lower affinity (IC50 increase) relative to SWTMFWV (hOmi_c1): > 30 fold
IC50 [1]: 118 ± 32.1 µM

Compound: Ac-MDIELVMI [Mxi2, M D I E L V M I, reference compound]
IC50 [2]: > 500 µM

Compound: SWTMFWV [hOmi_c3, S W T M F W V-CONH2]
IC50 (μM) [3]: NDI

Compound: SHWAGGWL [hOmi_n1_A2, S H W A G G W L]
IC50 (μM) [3]: NDI

Compound: Ac-SWTMFWV [hOmi_c1, S W T M F W V]
IC50 [2]: 3.3 µM

Compound: Ac-GQYYFV-OH [PDZ-Opt, G Q Y Y F V, reference compound]
fold lower affinity (IC50 increase) relative to SWTMFWV (hOmi_c1): 5 fold
IC50 [1]: 17.6 ± 5.6 µM

Compound: SHWWGG [hOmi_n1_t3, S H W W G G]
IC50 (μM) [3]: NDI

Compound: H-SHWWGGWL-NH2 [hOmi_n1_t1, S H W W G G W L]
IC50 [1]: 17.6 ± 3.9 µM

Compound: Ac-SWTMFAV [hOmi_c1_A2, S W T M F A V]
IC50 (unit printed in the cell (mM), read-out: IC50): > 1000 µM

Compound: SHAWGGWL [hOmi_n1_A3, S H A W G G W L]
IC50 (μM) [3]: NDI

Compound: Ac-RFPHFWV-OH [hOmi_c2, R F P H F W V]
fold lower affinity (IC50 increase) relative to SWTMFWV (hOmi_c1): 50 fold
